Row | Structure (SMILES) | melting point
1 | CN(C)CCn1ccc2cc(NS(=O)(=O)c3csc4ccccc34)ccc21 [Example 42e, N-(1-(2-(dimethylamino)ethyl)-1H-indol-5-yl)benzo[b]thiophene-3-sulfonamide] | 61 to 72 °C
2 | CCN(CC)CCCc1c[nH]c2ccc(NS(=O)(=O)c3sc4ccc(Cl)cc4c3C)cc12 [Example 43c, N-[3-(3-diethylaminopropyl)-1H-indol-5-yl]-5-chloro-3-methylbenzo[b]thiophene-2-sulphonamide] | 156 to 158 °C
3 | O=S(=O)(Nc1ccc2[nH]cc(CCN3CCOCC3)c2c1)c1ccc(-c2ccccc2)cc1 [Example 51c, N-{3-[2-(morpholin-4-yl)ethyl]-1H-indol-5-yl}-4-phenylbenzenesulphonamide] | 225 to 228 °C
4 | O=S(=O)(Nc1ccc2c(ccn2CCCN2CCCCC2)c1)c1cc(Cl)c(Cl)s1 [Example 51e, 4,5-dichloro-N-(1-(3-(piperidin-1-yl)propyl)-1H-indol-5-yl)thiophene-2-sulfonamide] | 70 to 72 °C
5 | CN1CCN(CCc2c[nH]c3ccc(NS(=O)(=O)c4cccc5c(Cl)cccc45)cc23)CC1 [Example 53c, N-[3-(4-methylpiperazin-1-yl)ethyl-1H-indol-5-yl]-5-chloronaphthalene-1-sulphonamide] | 246 to 249 °C

Next, values leading:

Row | melting point | Structure (SMILES)
6 | 82 to 92 °C | Cc1c(S(=O)(=O)Nc2ccc3c(ccn3CCCN3CCCCC3)c2)sc2ccc(Cl)cc12 [Example 43e, 5-chloro-3-methyl-N-(1-(3-(piperidin-1-yl)propyl)-1H-indol-5-yl)benzo[b]thiophene-2-sulfonamide]
7 | 105 to 107 °C | O=S(=O)(Nc1ccc2c(ccn2CCCN2CCCCC2)c1)c1cccc2ccccc12 [Example 45e, N-(1-(3-(piperidin-1-yl)propyl)-1H-indol-5-yl)naphthalene-1-sulfonamide]
8 | 148 to 150 °C | O=S(=O)(Nc1ccc2c(ccn2CCCN2CCCCC2)c1)c1ccc(-c2ccccc2)cc1 [Example 47e, 4-phenyl-N-(1-(3-(piperidin-1-yl)propyl)-1H-indol-5-yl)benzenesulfonamide]
9 | 59 to 61 °C | O=S(=O)(CCc1cccc2ccccc12)Nc1ccc2c(ccn2CCCN2CCCCC2)c1 [Example 48e, 2-(naphth-1-yl)-N-(1-(3-(piperidin-1-yl)propyl)-1H-indol-5-yl)ethanesulfonamide]
10 | 64 to 66 °C | O=S(=O)(Nc1ccc2c(ccn2CCCN2CCCCC2)c1)c1ccc(Oc2ccccc2)cc1 [Example 49e, 4-phenoxy-N-(1-(3-(piperidin-1-yl)propyl)-1H-indol-5-yl)benzenesulfonamide]
11 | 92 to 96 °C | O=S(=O)(Nc1ccc2c(ccn2CCCN2CCCCC2)c1)c1cccc2c(Cl)cccc12 [Example 52e, 5-chloro-N-(1-(3-(piperidin-1-yl)propyl)-1H-indol-5-yl)naphthalene-1-sulfonamide]

Reference: patent US20070059364A1, “Active substance combination comprising a compound with npy receptor affinity and a compound with 5-ht6 receptor affinity” (Laboratorios Del Dr. Esteve S.A., priority 2003, published 2007)
